Columns and labels:
[1] = Oral bioavailability in rat at 10 mg/kg; assay type: ADME, organism-based; details: in vivo
[2] = Volume of distribution at steady state in rat at 10 mg/kg, po or 2 mg/kg, iv; assay type: ADME, organism-based; details: in vivo, read-out: Vdss
[3] = Cmax in rat at 10 mg/kg, po; assay type: ADME, organism-based; parameters: dose 10 mg/kg, route oral; details: in vivo
[4] = Plasma concentration in Sprague-Dawley rat at 10 mg/kg, po administered 40 mins prior to glucose-challenge measured at 160 mins post last dose during OGTT assay; assay type: ADME, organism-based
[5] = Plasma concentration in Sprague-Dawley rat at 1 mg/kg, po administered 40 mins prior to glucose-challenge measured at 160 mins post last dose during OGTT assay; assay type: ADME, organism-based
[6] = Retention time of compound by LC-MS/MS analysis; assay type: physicochemical
[7] = Plasma concentration in Sprague-Dawley rat at 10 mg/kg, po administered 40 mins prior to glucose-challenge measured at 95 mins post last dose during OGTT assay; assay type: ADME, organism-based
[8] = Plasma concentration in Sprague-Dawley rat at 10 mg/kg, po administered 40 mins prior to glucose-challenge measured at 35 mins post last dose during OGTT assay; assay type: ADME, organism-based
[9] = Plasma concentration in Sprague-Dawley rat at 10 mg/kg, po administered 40 mins prior to glucose-challenge measured at 155 mins post last dose during OGTT assay; assay type: ADME, organism-based

| SMILES | bioavailability [1] [%] | Vd [2] [L/kg] | Cmax [3] [ng/mL] | concentration at 160 min [4] [µM] | concentration at 160 min [5] [µM] | Retention_time [6] [min] | concentration at 95 min [7] [µM] | concentration at 35 min [8] [µM] | concentration at 155 min [9] [µM] |
| --- | --- | --- | --- | --- | --- | --- | --- | --- | --- |
| CC#C[C@@H](Cc1nnn[nH]1)c1ccc(OCc2ccc3scc(-c4ccc(OCCCS(C)(=O)=O)cc4C)c3c2)cc1 | 56.8 | 5.1 | 417 | – | – | – | – | – | – |
| CC#C[C@@H](Cc1nnn[nH]1)c1ccc(OCc2ccc3sc(C(F)(F)F)c(-c4ccc(OCCOC)cc4C)c3c2)cc1 | – | – | – | – | – | – | 3.9 | 5.66 | 4.41 |
| CC#C[C@@H](Cc1nnn[nH]1)c1ccc(OCc2ccc3scc(-c4ccc(OCC5(C)CS(=O)(=O)C5)cc4C)c3c2)cc1 | 50.3 | 5.9 | 356 | – | – | – | – | – | – |

Further lines, results first:

| bioavailability [1] [%] | Vd [2] [L/kg] | Cmax [3] [ng/mL] | concentration at 160 min [4] [µM] | concentration at 160 min [5] [µM] | Retention_time [6] [min] | concentration at 95 min [7] [µM] | concentration at 35 min [8] [µM] | concentration at 155 min [9] [µM] | SMILES |
| --- | --- | --- | --- | --- | --- | --- | --- | --- | --- |
| 43.2 | 1.5 | 576 | 1.85 | 0.32 | 26.64 | – | – | – | CC#C[C@@H](Cc1nnn[nH]1)c1ccc(OCc2ccc3scc(-c4ccccc4C)c3c2)cc1 |
| 62.3 | 2.2 | 1590 | 3.74 | – | – | – | – | – | CC#C[C@@H](Cc1nnn[nH]1)c1ccc(OCc2ccc3sc(F)c(-c4ccccc4C)c3c2)cc1 |
| 72 | 0.8 | 4220 | 8.09 | – | – | – | – | – | CC#C[C@@H](Cc1nnn[nH]1)c1ccc(OCc2ccc3sc(Cl)c(-c4ccccc4C)c3c2)cc1 |
| 82.1 | 1.1 | 2520 | 7.42 | – | – | – | – | – | CC#C[C@@H](Cc1nnn[nH]1)c1ccc(OCc2ccc3sc(C(F)(F)F)c(-c4ccccc4C)c3c2)cc1 |

From ChEMBL document CHEMBL4184098, “Discovery of novel benzo[b]thiophene tetrazoles as non-carboxylate GPR40 agonists” (Bioorg Med Chem Lett, 2018)
